The values that follow come from patent publication US20090124608A1, “CB2 Receptor Modulators In Neurodegenerative Diseases And Applications Of The Same” (priority 2006, published 2009).

Data set [1] addresses T1, CB1 receptors (Mus musculus, UniProt P47746).
T1 construct: employing membranes prepared from mouse cortex as a relatively pure source of CB1 receptors; from tissue; host or cells: mouse cortex
The data set can be described thus: Antagonism of HU-210 G-protein activation in mouse cortex membranes. Type of data set: biochemical. The conditions noted are these: cortical membranes, HU-210 100 nM.
Source text: This was accomplished by antagonism experiments employing membranes prepared from mouse cortex as a relatively pure source of CB1 receptors.

In data set [2] the test system is CB1/CB2 receptors. Put plainly: [35S]GTPγS binding, selective antagonism of HU-210, G93A spinal cord membranes. The conditions noted are these: antagonist 3 μM. In kind it is biochemical, mouse. A general note: Binding of GTPγS marks nucleotide exchange on a G protein.
In data set [3] the test system is CB1/CB2 receptors. The data set can be described thus: [35S]GTPγS binding, selective antagonism of HU-210, WT-OE spinal cord membranes. In kind it is biochemical, mouse. The following applies: antagonist 3 μM.
In data set [4] the test system is G93A-SOD1 mice. The conditions noted are these: administration after the onset of symptoms; Raman et al. 2004, Weydt et al. 2005; cited from earlier work.
Another data set relates to CB1 and CB2 receptors. Put plainly: [35S]GTPγS binding with selective agonists in mouse spinal cord membranes. In kind it is biochemical. The conditions noted are these: data not shown. The method, then:
(§1) [^35S]GTPγS binding assays were performed as described previously (Prather et al. 2000a) in a buffer containing 20 mM Hepes, 100 mM NaCl, and 10 mM MgCl2 at pH 7.4. Each binding reaction contained 10 μg of spinal cord membrane protein, the presence or absence of cannabinoid ligands (see following), plus 0.1 nM [^35S]GTPγS (1250 Ci/mmol, Perkin Elmer Life and Analytical Sciences) and […] of GDP to suppress basal G-protein activation. Reactions were incubated for 2 hrs at 30 °C. Non-specific binding was defined by binding observed in the presence of 10 μM of non-radioactive GTPγS. The reaction was terminated by rapid vacuum filtration through glass fiber filters followed by two washes with ice-cold assay buffer. 4 mL of scintiverse® (Fisher Scientific) was added to the filters and radioactivity quantified by scintillation counting.
We initially attempted to compare CB 1 and CB2 receptor activation of G-proteins between WT-OE and G93A spinal cord membranes by conducting [^35S]GTPγS binding assays in the presence of selective agonists.

The target of the next data set is CB2 receptors (Homo sapiens, UniProt P34972). The following applies: Yao et al. 2006, cited from earlier work.
Sequence of CB2 receptors (P34972 whole entry): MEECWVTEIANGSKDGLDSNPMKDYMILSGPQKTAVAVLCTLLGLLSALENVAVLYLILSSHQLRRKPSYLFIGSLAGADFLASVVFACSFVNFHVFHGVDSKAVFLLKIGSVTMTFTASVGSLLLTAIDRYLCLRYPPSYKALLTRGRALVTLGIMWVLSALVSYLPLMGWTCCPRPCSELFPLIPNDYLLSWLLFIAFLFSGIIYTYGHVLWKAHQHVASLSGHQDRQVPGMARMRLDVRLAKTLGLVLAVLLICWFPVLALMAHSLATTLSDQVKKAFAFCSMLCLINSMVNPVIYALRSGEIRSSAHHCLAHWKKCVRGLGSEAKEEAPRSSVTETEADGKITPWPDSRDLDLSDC
In data set [5] the test system is G93A-SOD1 mice. Put plainly: Motor function test (clinging to perpendicular wire mesh screen for 60 seconds) in G93A mice. In kind it is in vivo, mouse. On the procedure: Beginning on the first day of observing symptoms, mice were tested for motor function biweekly until sacrifice. Motor function testing was initiated by gently placing animals on a horizontal wire mesh screen. The screen was slowly rotated to be perpendicular to the ground (90°). The duration that mice were able to hang onto the perpendicular wire mesh up to a maximum of 120 seconds was recorded. Because vehicle treated mice on average lost the ability to cling to the wire mesh for 60 seconds in the middle of their survival curve, this “all or none” response was utilized to compare motor function across all treatment groups. Kaplan-Meier time-to-event statistics were employed to analyze the data. The event was defined as the number of days after symptom onset that each individual animal was no longer able to cling to the wire mesh screen for 60 seconds.
Testing twice a week for the duration of the study provided a quantifiable decline during disease progression. Mice were placed on a horizontal wire mesh screen that was gently inverted to 90°. Kaplan-Meier time-to-event curves were used to analyze the data. The event was defined as the day each animal was no longer able to cling to the perpendicular screen for 60 seconds. […] The disparity between male and female motor function was paralleled by the interval between survival for the genders. Male mice survived an average of 39.6±2.0 (FIG. 6a) days past the onset of symptoms, while females lived 9 days longer than males (p<0.0018*, FIG. 6b). For males and females, loss of motor function preceded death by 20.5 (p<0.0002***) and 19.0 days (p<0.0028**), respectively.

The nature of data set [6]: Water solubility and dissolution in vehicles.
Data set [7] deals with CB1 receptors. The following applies: Yao et al. 2006; read-out: affinity for CB1 receptors; cited from earlier work.
Another data set concerns cannabinoid receptors. The data set can be described thus: GTPγS binding in end stage spinal cord homogenates from G93A-SOD1 mice, separated by gender. In kind it is biochemical, mouse. The following applies: for 2-AG stimulated G-protein activation remaining on co-incubation with CB2 ligand: 2-AG 3 μM; for 2-AG stimulated G-protein activation remaining on co-incubation with CB2 ligand / HU-210 stimulated G-protein activation remaining on co-incubation with CB2 ligand: ligand 1 μM; for HU-210 stimulated G-protein activation remaining on co-incubation with CB2 ligand: HU-210 100 nM. On the procedure: as §1
Harvested spinal cords from the vehicle treated control groups at the end-stage of their disease were separated by gender and used to conduct GTP7S binding experiments, which measure the capability of a ligand to promote or suppress G-protein activation.
It was next determined if the selective CB2 ligands antagonize G-protein activation produced by an endocannabinoid such as 2-AG as well.

Data set [8] concerns G93A-SOD1 mice. Put plainly: Survival of G93A mice, daily i.p. treatment initiated at symptom onset. Type of data set: in vivo, mouse. The conditions noted are these: for survival interval (symptom onset to sacrifice): vehicle 23.7+/−1.7 days; for Survival Interval Ratio (SIR) / Total Life-Span Ratio (TLR): G93A mice, i.p. daily from onset. The text has this: Hemizygous transgenic male mice with the G93A mutation of the human SOD1 gene (G1H/1) mutation (B6SJL-TgN (SOD1-G93A) 1 Gur) were obtained from Jackson Laboratories and were bred locally with female B6SJL mice (Jackson Laboratory), according to the protocol obtained from the vendor. To decrease the inherent variability in disease onset and survival with these mice, littermate transgenic males (rather than random males from several different litters) were selected to sire subsequent generations of mice.
Determination of symptom onset, randomization and drug treatment of G93A mice. Symptom onset was assessed by blinded observation of changes in hind limb gait; these changes are related to the mouse's inability to support its weight on its hind limbs. At onset, mice initially place their weight on the toes and then quickly fall to full foot placement (as opposed to healthy mice which walk and run on the hind toes); this “toe-to-heel” walking pattern produces an asymmetric gait between hind and fore limbs and a characteristic “wobbling” gait. Mouse groups were randomized based on symptom onset and alternately placed in control and treated groups, e.g., the first mouse to develop hind limb weakness was placed in the control group, the second was injected with test compound and placed in the treatment group, and so on. […] By definition, the onset administration paradigm employed was focused on what we term the “survival interval”—namely the time from onset to end-stage sacrifice.
Mice were sacrificed when any of the following criteria were met: (1) inability to right themselves within 30 seconds when placed on their sides; (2) inability to eat or drink, or move toward food and water placed in low-rimmed dishes on cage floor; (3) loss of more than 10% of total body weight in 24 hours; (4) gross loss of grooming behavior; or (5) labored breathing. Criteria for death were confirmed by a second investigator who is blinded to the group identity of each mouse. The age of symptom onset was subtracted from the age at death for each mouse, and a mean survival interval was calculated for each group. By calculating the ratio of the survival interval of treated groups to the survival interval of untreated littermate controls, a X-fold increase in survival was readily determined.
The effect of chronic administration of cannabinoids on the survival of G93A mice was next examined (FIG. 4). […] The number of days between symptom onset and animal sacrifice was measured (e.g., survival interval). In humans, this is analogous to the time between diagnosis of ALS and death, ranging from 2-5 years.

Where [9] appears, read: G93A spinal cord membranes, HU-210 100 nM.
The mark [10] stands for this setting: WT-OE spinal cord membranes, HU-210 100 nM.
The mark [11] stands for this setting: daily injections initiated at symptom onset.

The structures appear in SMILES notation. “Also recorded” adds a separate entry of the source.

T1 sequence (P47746 whole entry): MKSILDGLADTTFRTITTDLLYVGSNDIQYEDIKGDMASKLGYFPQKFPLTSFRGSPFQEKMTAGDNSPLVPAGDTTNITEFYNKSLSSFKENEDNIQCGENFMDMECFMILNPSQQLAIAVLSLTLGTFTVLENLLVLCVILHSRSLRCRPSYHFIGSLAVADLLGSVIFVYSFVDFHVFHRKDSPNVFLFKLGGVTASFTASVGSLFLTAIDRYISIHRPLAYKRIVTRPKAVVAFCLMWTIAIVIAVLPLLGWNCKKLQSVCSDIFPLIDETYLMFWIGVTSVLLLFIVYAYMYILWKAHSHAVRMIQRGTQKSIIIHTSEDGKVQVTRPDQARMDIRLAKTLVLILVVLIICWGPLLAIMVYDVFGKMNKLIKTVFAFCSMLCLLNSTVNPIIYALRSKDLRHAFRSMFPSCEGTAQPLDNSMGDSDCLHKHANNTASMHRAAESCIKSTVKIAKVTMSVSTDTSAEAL

For the compound `CC1=CC[C@@H]2[C@@H](C1)c1ccc(CC#CCCCNS(C)(=O)=O)cc1OC2(C)C` [O-2050, (6aR,1OaR)-3-(1-Methanesulfonylamino-4-hexyn-6-yl)-6a,7,10,10a-tetrahydro-6,6,9-trimethyl-6H-dibenzo[b,d]pyran], the “minimal concentration required to completely block HU-210-mediated G-protein activation by CB1 receptors” value on CB1 receptors [1] turned out to be 3 μM. Moreover, the “net reduction of HU-210-induced G-protein activation” value with CB1/CB2 receptors [2] (G93A membranes) is reported as 25.9 fmole/mg protein; with CB1/CB2 receptors [3] (WT-OE membranes), 28.3 fmoles/mg protein. Besides, the “% blockade of HU-210-induced G-protein activation” value in the data set on CB1/CB2 receptors [2] (setting [9]) was found to be 45%; with CB1/CB2 receptors [2] (G93A spinal cord membranes, HU-210 100 nM, listed as 0-2050) it was 46%; in the data set with CB1/CB2 receptors [3] (setting [10]), 92%. Moreover, the “HU-210 stimulated [35S]GTPγS binding remaining on co-incubation with antagonist” value with CB1/CB2 receptors [2] (setting [9]) turned out to be 31.5±4.4 fmole/mg protein; with CB1/CB2 receptors [3] (setting [10]), 2.5±0.8 fmole/mg protein.
On to `CCCCCc1cc(O)c2c(c1)OC(C)(C)[C@@H]1CCC(C)=C[C@@H]21` [Δ^9-THC, Δ^9-Tetrahydrocannabinol], for which the “delaying motor impairment and prolonging survival in G93A mice” value with G93A-SOD1 mice [4] is on record as “minimally successful”.
For `CCCCCc1cc(O)c2c(c1)OC(C)(C)c1ccc(C)cc1-2` [cannabinol], the “delaying motor impairment and prolonging survival in G93A mice” value with G93A-SOD1 mice [4] is “minimally successful”.
As to `CCCCC/C=C\C/C=C\C/C=C\C/C=C\CCCC(=O)NCCCl` [ACEA, (all Z)-N-(2-cycloethyl)-5,8,11,14-eicosatetraenamide], the “G-protein activation by selective agonist” value in the data set on CB1 and CB2 receptors is “failed attempts to demonstrate consistent, measurable G-protein activation; also recorded: unable to demonstrate consistent, measurable G-protein activation”.
On the same count and under the same terms, in the case of `COc1ccc2c(c1)c(CCN1CCOCC1)c(C)n2C(=O)c1cccc(Cl)c1Cl` [GW-405833, (2,3-dichloro-phenyl)-[5-methoxy-2-methyl-3-(2-morpholin-4-yl-ethyl)-indol-1-yl]-methanone] it was “failed attempts to demonstrate consistent, measurable G-protein activation; also recorded: unable to demonstrate consistent, measurable G-protein activation”.
For the compound `CN1CCCCC1Cn1cc(C(=O)c2cc([N+](=O)[O-])ccc2I)c2ccccc21` (racemic) [AM-1241, (R,S)-(+)-(2-Iodo-5-nitrobenzoyl)-[1-(1-methyl-piperidin-2-ylmethyl-1H-indole-3-yl]methanone], on CB2 receptors, the “higher affinity for CB2 relative to CB1” value was > 80 fold. For the same compound, the Ki is 7 nM on CB2 receptors (read-out: affinity for CB2 receptors) and 580 nM on CB1 receptors [7]. Also, the “improvement in motor function versus vehicle, females” value in the data set with G93A-SOD1 mice [5] (female G93A mice, time to loss of ability to cling 60 seconds) is on record as 37%. In addition, in the data set on G93A-SOD1 mice [5] (female mice, vehicle 19.0 days), the “interval between mean loss of motor function and death, females” value stood at 9.0 days. Moreover, in the data set on G93A-SOD1 mice [5] (male G93A mice, time to loss of ability to cling 60 seconds), the “improvement in motor function versus vehicle, males” value came out at 81%. In the data set on G93A-SOD1 mice [5] (male mice, vehicle 19.1±3.9 days), the “loss of motor function, days after observation of symptoms” value worked out at 34.5 ± 5.5 days. In the data set with G93A-SOD1 mice [5] (male mice, vehicle 20.5 days), the “interval between mean loss of motor function and death, males” value came out at 12.8 days. The “water solubility” value in data set [6] was “very poor water solubility”. Moreover, the “stable dissolution in tested vehicles” value in [6] (ethanol/water, glycerol, polyethylene glycol, high purity olive oil tested) is “achieved only with olive oil”. Besides, the “2-AG stimulated G-protein activation remaining on co-incubation with CB2 ligand” value with cannabinoid receptors (female homogenate) came to 11.62±2.2 fmole/mg protein; in the data set on cannabinoid receptors (male homogenate), 9.09±52.1 fmole/mg protein. The figures for the “HU-210 stimulated G-protein activation remaining on co-incubation with CB2 ligand” value in the data set on cannabinoid receptors (female homogenates) and in the data set with cannabinoid receptors (male homogenates) were 19.89±1.5 fmole/mg protein and 9.73±2.5 fmole/mg protein, respectively. For the same compound, the “effect on G-protein activation” value in the data set with cannabinoid receptors (male spinal cord) is listed as “relatively small decrease in G-protein activation”. Further, the “G-protein activation by selective agonist” value in the data set on CB1 and CB2 receptors is “failed attempts to demonstrate consistent, measurable G-protein activation; also recorded: unable to demonstrate consistent, measurable G-protein activation”. Also, the “increase in survival interval versus vehicle” value in the data set with G93A-SOD1 mice [8] (0.3 mg/kg daily i.p.) came to 9.7 days; in the data set on G93A-SOD1 mice [8] (3 mg/kg daily i.p.) it was 13.2 days. In addition, the entries for the “survival interval (symptom onset to sacrifice)” value with G93A-SOD1 mice [8] (0.3 mg/kg daily i.p.) and in the data set with G93A-SOD1 mice [8] (3 mg/kg daily i.p.) were 33.4 ± 2.2 days and 36.9 ± 2.8 days, respectively. For the same compound, the “Survival Interval Ratio (SIR)” value in the data set with G93A-SOD1 mice [8] (0.3 mg/kg) came to 1.41; in the data set on G93A-SOD1 mice [8] (3.0 mg/kg) it was 1.56. The “Total Life-Span Ratio (TLR)” value in the data set with G93A-SOD1 mice [8] (0.3 mg/kg) is 1.07; in the data set with G93A-SOD1 mice [8] (3.0 mg/kg) it was 1.11. In the data set on G93A-SOD1 mice [8] (setting [11]), the “extension of total life-span versus controls” value came out at 11%. Besides, the “living longer after symptom onset than controls (survival interval increase)” value with G93A-SOD1 mice [8] (setting [11]) is recorded as 56%. Moreover, the “survival improvement versus vehicle, females” value in the data set with G93A-SOD1 mice [8] (female G93A mice, 3 mg/kg for AM-1241 and AM630, JTE-907 dose not given) was “did not live significantly longer”. Besides, in the data set with G93A-SOD1 mice [8] (male G93A mice, 3 mg/kg for AM-1241 and AM630, JTE-907 dose not given), the “survival improvement versus vehicle, males” value turned out to be 19%. In the data set with G93A-SOD1 mice [8] (treatment initiated at symptom onset), the “effect on survival of G93A-SOD1 mice” value was “pronounced increase in survival”.
